Molecular target: T1, hTRPML1 (Homo sapiens, UniProt Q9GZU1)
T1 construct: expressed in transfected cells
Test: Cellular TRPML1 assay (FLIPR, GCaMP6f calcium read-out)
Format: cell-based
Details: HEK T-REx/GCaMP6f/TRPML1 cells, FLIPR TETRA, kinetic response over 300 seconds; read-out: hTRPML1 FLIPR pEC50 (converted)
Procedure: Buffers and reagents • PBS (D-PBS without calcium and magnesium; EuroClone) • Trypsin (Trypsin 0.05%, EDTA 0.02% in PBS; EuroClone) • DMSO (Sigma) • Ca^2+ free Tyrode's buffer: in-house solution (130 mM NaCl, 5 mM KCl, 1 mM MgCl2, 5 mM NaHCO3, 20 mM HEPES in water at pH 7.4; sterile filtered). • Opti-MEM (Gibco) • Agonist: ML-SA1 (Sigma); stock: 60 mM in DMSO, stored at −20° C. • Blocker: ML-SI3 (in house synthesis); stock: 20 mM in DMSO, stored at −20° C.
Cell line • The final clone for the TRPML1 assay is HEK T-REx/GCaMP6f/TRPML1. • GCaMP6f is a genetically encoded calcium indicator that is stably expressed in this cell line and used as a fluorescent read-out.
Cells are seeded at 15000 cells/well either in 25 µl/well of growth medium or in 20 μl/well of Optimem+0.5% FBS without selection antibiotics. Twenty-four hours later, cells are assayed for the response to various compounds using the Ca^2+ sensitive GCaMP6f protein stably expressed in the cells as readout.
The experiment is performed in a 384-well format according to the following procedures for either Ca^2+ free or Optimem conditions: • Ca^2+ free condition (in absence of extracellular Ca^2+): • 24 h after seeding, pre-incubate the cells at room temperature for about 10′. • Then remove the culture medium and replace it with 20 μL of Ca^2+ free Tyrode's buffer. • Start the experiment at the FLIPR^TETRA by injecting 10 μL/w of 3× concentrated test compounds and controls in Ca^2+ free Tyrode's buffer. Monitor the kinetic response over a period of 300 seconds. • Final DMSO concentration: 0.5% • Optimem condition (in presence of extracellular Ca^2+): • 24 h after seeding, pre-incubate the cells at room temperature for about 10′. • Start the experiment at the FLIPR^TETRA by injecting 10 μL/w of 3× concentrated test compounds and controls in Ca^2+ free Tyrode's buffer. Monitor the kinetic response over a period of 300 seconds. • Final DMSO concentration: 0.5%
Data from FLIPR^TETRA measurements are analyzed with the Genedata Screener© software.

T1 sequence (Q9GZU1 whole entry): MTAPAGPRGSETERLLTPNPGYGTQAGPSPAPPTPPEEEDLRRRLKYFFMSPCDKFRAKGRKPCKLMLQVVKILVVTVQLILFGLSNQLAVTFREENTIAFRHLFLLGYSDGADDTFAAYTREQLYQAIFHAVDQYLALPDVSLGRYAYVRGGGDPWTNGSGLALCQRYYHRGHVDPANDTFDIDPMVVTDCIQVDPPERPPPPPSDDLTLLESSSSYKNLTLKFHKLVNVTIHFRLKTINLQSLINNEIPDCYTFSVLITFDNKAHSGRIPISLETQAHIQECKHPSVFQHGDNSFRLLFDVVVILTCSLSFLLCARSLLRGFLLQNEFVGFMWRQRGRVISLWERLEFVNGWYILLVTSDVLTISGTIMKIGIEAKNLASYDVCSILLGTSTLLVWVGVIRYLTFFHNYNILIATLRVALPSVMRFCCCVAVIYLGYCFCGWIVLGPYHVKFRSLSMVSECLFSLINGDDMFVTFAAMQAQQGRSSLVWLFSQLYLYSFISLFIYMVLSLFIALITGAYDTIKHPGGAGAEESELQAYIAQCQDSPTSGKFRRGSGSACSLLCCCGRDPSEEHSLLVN

EC50	Structure (SMILES)
> 3.16 µM	CN(C)S(=O)(=O)c1ccc(C(=O)N(c2ccccc2N2CCC(Oc3ccccc3)CC2)C2CC2)cc1 [Example 5, N-cyclopropyl-4-(N,N-dimethylsulfamoyl)-N-(2-(4-phenoxypiperidin-1-yl)phenyl)benzamide]
1 to 3.16 µM	Cc1ccc(N2CCC(Oc3ccccn3)CC2)c(N(C(=O)c2ccc(S(=O)(=O)N(C)C)cc2)C2CCCC2)c1 [Example 16, N-cyclopentyl-4-(N,N-dimethylsulfamoyl)-N-(5-methyl-2-(4-(pyridin-2-yloxy)piperidin-1-yl)phenyl)benzamide]
< 1 µM	CN(C)S(=O)(=O)c1ccc(S(=O)(=O)Nc2cccc(F)c2N2CCC(Oc3ccc(C(F)(F)F)cn3)CC2)cc1 [Example 43, N^1-(3-fluoro-2-(4-((5-(trifluoromethyl)pyridin-2-yl)oxy)piperidin-1-yl)phenyl)-N^4,N^4-dimethylbenzene-1,4-disulfonamide]
> 3.16 µM	Cc1ccc(S(=O)(=O)Nc2ccccc2N2CCN(C(=O)Oc3ccccc3)CC2)cc1C [Example 39, phenyl 4-(2-((3,4-dimethylphenyl)sulfonamido)phenyl) piperazine-1-carboxylate]
> 3.16 µM	CC(C)N(C(=O)c1ccc(S(=O)(=O)N(C)C)cc1)c1cccc(F)c1N1CCC(Oc2ccccn2)CC1 [Example 11, 4-(N,N-dimethylsulfamoyl)-N-(3-fluoro-2-(4-(pyridin-2-yloxy)piperidin-1-yl)phenyl)-N-isopropylbenzamide]
> 3.16 µM	CC(C)(C)OC(=O)N1CCN(c2ccccc2NS(=O)(=O)c2ccc(OC(F)(F)F)cc2)CC1 [Example 21, tert-butyl 4-(2-((4-(trifluoromethoxy)phenyl)sulfonamido)phenyl) piperazine-1-carboxylate]
1 to 3.16 µM	CN(C)S(=O)(=O)c1ccc(S(=O)(=O)Nc2ccccc2N2CCC[C@@H](OCc3ccccc3)C2)cc1 (single isomer, unassigned) [Example 27]
> 3.16 µM	Cc1ccc(C)c(S(=O)(=O)Nc2ccccc2N2CCN(C(=O)OC(C)(C)C)CC2)c1 [Example 20, tert-butyl 4-(2-((2,5-dimethylphenyl)sulfonamido)phenyl)piperazine-1-carboxylate]
1 to 3.16 µM	CN(C)S(=O)(=O)c1ccc(S(=O)(=O)Nc2cccc(Cl)c2N2CCC(Oc3ccccn3)CC2)cc1 [Example 7, N^1-(3-chloro-2-(4-(pyridin-2-yloxy)piperidin-1-yl)phenyl)-N^4,N^4-dimethylbenzene-1,4-disulfonamide]
> 3.16 µM	CN(C(=O)c1ccc(S(=O)(=O)N(C)C)cc1)c1cccc(F)c1N1CCC(Oc2ccccn2)CC1 [Example 9, 4-(N,N-dimethylsulfamoyl)-N-(3-fluoro-2-(4-(pyridin-2-yloxy)piperidin-1-yl)phenyl)-N-methylbenzamide]
1 to 3.16 µM	CN(C)S(=O)(=O)c1ccc(S(=O)(=O)Nc2ccccc2N2CCC[C@@H](Oc3ccccc3)C2)cc1 (single isomer, unassigned) [Example 30]
1 to 3.16 µM	CN(C)S(=O)(=O)c1ccc(S(=O)(=O)Nc2ccccc2N2CCC[C@H](OCc3ccccc3)C2)cc1 (single isomer, unassigned) [Example 26]
< 1 µM	Cc1ccc(N2CCC(Oc3ccccn3)CC2)c(NS(=O)(=O)c2ccc(S(=O)(=O)N(C)C)cc2)c1 [Example 14, N^1,N^1-dimethyl-N^4-(5-methyl-2-(4-(pyridin-2-yloxy)piperidin-1-yl)phenyl)benzene-1,4-disulfonamide]
1 to 3.16 µM	CN(C)S(=O)(=O)c1ccc(S(=O)(=O)Nc2ccccc2N2CCC[C@H](COc3ccccc3)C2)cc1 (single isomer, unassigned) [Example 35]
> 3.16 µM	CN(C)S(=O)(=O)c1ccc(S(=O)(=O)Nc2ccccc2N2CCC[C@H](Oc3ccccc3)C2)cc1 (single isomer, unassigned) [Example 29]
> 3.16 µM	COCCN(C(=O)c1ccc(S(=O)(=O)N(C)C)cc1)c1ccccc1N1CCC(Oc2ccccc2)CC1 [Example 3, 4-(N,N-dimethylsulfamoyl)-N-(2-methoxyethyl)-N-(2-(4-phenoxypiperidin-1-yl)phenyl)benzamide]
1 to 3.16 µM	CN(C)S(=O)(=O)c1ccc(S(=O)(=O)Nc2ccccc2N2CCCCCCC2)cc1 [Example 24, N1-(2-(azocan-1-yl)phenyl)-N4,N4-dimethylbenzene-1,4-disulfonamide]
1 to 3.16 µM	CCS(=O)(=O)c1ccc(S(=O)(=O)Nc2cccc(F)c2N2CCC(Oc3ccccn3)CC2)cc1 [Example 15, 4-(ethylsulfonyl)-N-(3-fluoro-2-(4-(pyridin-2-yloxy)piperidin-1-yl)phenyl)benzenesulfonamide]
> 3.16 µM	Cc1ccc(S(=O)(=O)Nc2ccccc2N2CCN(C(=O)CC(C)(C)C)CC2)cc1C [Example 41, N-(2-(4-(3,3-dimethylbutanoyl)piperazin-1-yl)phenyl)-3,4-dimethylbenzenesulfonamide]
< 1 µM	CN(C)S(=O)(=O)c1ccc(S(=O)(=O)Nc2cccc(F)c2N2CCC(C)(c3ccccc3)CC2)cc1 [Example 37, N^1-(3-fluoro-2-(4-methyl-4-phenylpiperidin-1-yl)phenyl)-N^4,N^4-dimethylbenzene-1,4 disulfonamide]
1 to 3.16 µM	CN(C)S(=O)(=O)c1ccc(S(=O)(=O)Nc2cc(Cl)ccc2N2CCC(Oc3ccccn3)CC2)cc1 [Example 13, N^1-(5-chloro-2-(4-(pyridin-2-yloxy)piperidin-1-yl)phenyl)-N^4,N^4-dimethylbenzene-1,4-disulfonamide]
> 3.16 µM	CC(C)(C)CC(=O)N1CCN(c2ccccc2NS(=O)(=O)c2ccc(C(F)(F)F)cc2)CC1 [Example 42, N-(2-(4-(3,3-dimethylbutanoyl)piperazin-1-yl)phenyl)-4-(trifluoromethyl)benzenesulfonamide]
> 3.16 µM	Cc1ccc(S(=O)(=O)Nc2ccccc2N2CCN(C(=O)OC(C)(C)C)CC2)c(F)c1 [Example 18, tert-butyl 4-(2-((2-fluoro-4-methylphenyl)sulfonamido)phenyl)piperazine-1-carboxylate]
< 1 µM	CN(C)S(=O)(=O)c1ccc(S(=O)(=O)Nc2cccc(F)c2N2CCC(Oc3ncc(Cl)cc3F)CC2)cc1 [Example 45, N^1-(2-(4-((5-chloro-3-fluoropyridin-2-yl)oxy)piperidin-1-yl)-3-fluorophenyl)-N^4,N^4-dimethylbenzene-1,4-disulfonamide]
1 to 3.16 µM	CN(C)S(=O)(=O)c1ccc(S(=O)(=O)Nc2ccccc2N2CCC[C@@H](COc3ccccc3)C2)cc1 (single isomer, unassigned) [Example 36]
< 1 µM	CN(C)S(=O)(=O)c1ccc(S(=O)(=O)Nc2cccc(F)c2N2CCC(Oc3ccc(Cl)cn3)CC2)cc1 [Example 44, N^1-(2-(4-((5-chloropyridin-2-yl)oxy)piperidin-1-yl)-3-fluorophenyl)-N^4,N^4-dimethylbenzene-1,4-disulfonamide]
1 to 3.16 µM	CCCN(C(=O)c1ccc(S(=O)(=O)N(C)C)cc1)c1ccccc1N1CCC(Oc2ccccc2)CC1 [Example 4, 4-(N,N-dimethylsulfamoyl)-N-(2-(4-phenoxypiperidin-1-yl)phenyl)-N-propylbenzamide]
> 3.16 µM	CN(C)S(=O)(=O)c1ccc(C(=O)N(c2cccc(F)c2N2CCC(Oc3ccccn3)CC2)C2CCC2)cc1 [Example 12, N-cyclobutyl-4-(N,N-dimethylsulfamoyl)-N-(3-fluoro-2-(4-(pyridin-2-yloxy)piperidin-1-yl)phenyl)benzamide]

— patent US20240254083A1, “HETEROCYCLIC TRPML1 AGONISTS AND USES THEREOF” (Libra Therapeutics, Inc., priority 2021, published 2024)
